Laboratory results published in patent publication US20030229004A1, “Modulation of tumor cells using BER inhibitors in combination with a sensitizing agent and DSBR inhibitors” (Pangene Corporation, priority 2002, published 2003).
pIC50: −log10 of the molar value. Like-named read-outs stand apart in the source and are kept apart here.

Key:
[1] = system: A2780/cp70 cells; assay: Clonogenic survival in A2780/cp70 (MMR-deficient) ovary carcinoma cells; format: cell-based, human
Method: (§1) FIG. 1. Effect of Methoxyamine (MX) on cytotoxicity induced by IUDR in human A2780/cp70 (MMR-deficient) and […]) ovary carcinoma cell lines. Cells were treated for 48 hours with IUDR alone or with IUDR and 6 mM Methoxyamine. Surviving colonies were counted in triplicate 7-10 days after treatment. Error bars, Standard Error. FIG. 5. Effect of Methoxyamine (MX) on cytotoxicity induced by FaraA in human A2780/cp70 (MMR-deficient) and […]) ovary carcinoma cell lines. Cells were treated for 48 hours with FaraA alone or with FaraA and 6 mM Methoxyamine. Surviving colonies were counted in triplicate 7-10 days after treatment. Error bars, Standard Error. For clonogenic survival studies in A2780/cp70 and […], exponentially growing cells were similarly diluted and plated in complete RPMI 1640 medium (+400 μg/ml Hygromycin in […]). […] IUDR-containing medium was then removed in cell populations, cultures were washed with PBS and incubated at 37° C. for 7-10 days in tissue culture medium containing 10% defined FBS (+dThd). Cell populations were treated simultaneously with IUDR and 6 mM Methoxyamine (MX) (Sigma, St Louis, Mo.) for 48 hours; plates were then washed with PBS and surviving colonies were counted after incubation at 37° C. in drug-free medium for 7-10 days.

[2] = system: HCT116 cells; assay: Clonogenic survival in HCT116 (MMR-deficient) colon carcinoma cells; format: cell-based, human
Method: (§2) FIG. 2. […] Cells were treated for 48 hours with IUDR alone (closed symbols) or with IUDR and 6 mM Methoxyamine (open symbols). Surviving colonies were counted in triplicate 7-10 days after treatment. Error bars, Standard Error. FIG. 4. […] Cells were treated for 24 hours with FaraA alone or with FaraA and 6 mM Methoxyamine. Surviving colonies were counted in triplicate 7-10 days after treatment. Error bars, Standard Error. The human colon cancer cell line HCT116 lacks MLH1 expression and their MMR positive subline (HCT116/chr 3-6) has hMLH1 reintroduced by chromosome 3 transfer. For clonogenic survival studies in HCT116 and HCT116/3-6 cells, exponentially growing cells were similarly diluted and plated in complete D-MEM medium (+400 μg/ml G418 in HCT116/3-6 cells). […] IUDR-containing medium was then removed in HCT116 cell populations, cultures were washed with PBS and incubated at 37° C. for 7-10 days in tissue culture medium containing 10% defined FBS (+dThd). HCT116 cell populations were treated simultaneously with IUDR and 6 mM Methoxyamine (MX) (Sigma, St Louis, Mo.) for 48 hours; plates were then washed with PBS and surviving colonies were counted after incubation at 37° C. in drug-free medium for 7-10 days.

[3] = system: HCT116/3-6 cells; assay: Clonogenic survival in HCT116/3-6 (MMR-proficient) colon carcinoma cells; format: cell-based, human; conditions: for pIC50: Homo sapiens, HCT-116, 24 hours
Method: as §2

[4] = system: EM9 cells; assay: FaraA cytotoxicity in XRCC1 mutant EM9 CHO cells; format: cell-based
Method: (§3) FIG. 3. Effect of Methoxyamine (MX) on cytotoxicity induced by FaraA in CHO cells proficient or deficient in Xrcc1 protein. Cells were treated for 24 hours with FaraA alone or with FaraA and 6 mM Methoxyamine. Surviving colonies were counted in triplicate 7-10 days after treatment and the experiment was repeated three times. Error bars, Standard Error.
(§4) AA8 and EM9 cells were obtained from the American Tissue Culture Collection (Manassas, Va.). H9T3 cells were a gift of Dr. L. H. Thompson (Lawrence Livermore National Laboratory, Livermore, Calif.). The parental CHO line clone AA8 was isolated as being heterozygous at the aprt locus; the mutant EM9 clone was isolated from AA8 cells following mutagenesis with EMS and carry a frameshift mutation in the XRCC1 gene resulting in a truncated polypeptide lacking two thirds of the normal sequence. […] H9T3-7-1 cells (referred in the text as H9T3) were derived from EM9 following transfection with a cosmid containing XRCC1 cDNA which corrects the DNA repair defect of EM9.
(§5) We tested whether MX, a small molecule known to be BER inhibitor, could sensitize CHO cells to FaraA cytotoxicity.

[5] = system: A2780/cp70+chr3 cells; assay: Clonogenic survival in A2780/cp70+chr3 (MMR-proficient) ovary carcinoma cells; format: cell-based, human
Method: as §1

[6] = system: HCT116 cells; assay: Clonogenic survival of HCT116 with poly IUDR and IUDR (Example 8); format: cell-based, human; conditions: 1, 3, 10 μM for 48 hours
Method: Human colon cells (HCT 116) are treated with poly IUDR, an oligonucleotide comprised of IUDR, and IUDR. For clonogenic survival studies in HCT116, exponentially growing cells are similarly diluted and plated in complete D-MEM medium (+400 μg/ml G418 in HCT116/3-6 cells). Poly IUDR and IUDR treatment (1, 3, 10 μM) in HCT116 is for 48 hours in D-MEM (-G418) medium containing 10% dialyzed FBS, and the drug-containing medium is replaced after the initial 24 hours. Compound-containing medium is then removed from the HCT116 cell cultures, the cultures are washed with PBS, and incubated at 37° C. for 7-10 days in tissue culture medium containing 10% defined FBS (+dThd). Surviving colonies are counted after incubation at 37° C. in drug-free medium for 7-10 days.

[7] = Plasma levels of IPDR in athymic mice; format: in vivo; conditions: 250 mg/kg ip; samples 0-350 min; athymic mice with U87 MG tumors
Method: Athymic mice are treated with MX-IPDR or IPDR. Tumor fragment of about 2×2×2 mm derived from Human U87 MG Glioma Cells are implanted s.c. into the axilliary region of the mice. The mice are then treated ip with MX-IPDR at 250 mg/kg or IPDR at 250 mg/kg and samples taken at 0, 2, 5, 15, 45, 75, 120, 150, 210 and 350 min after treatment. The IPDR plasma levels are determined as previously reported by Kinsella et al. {Kinsella, 2000 #121}.

[8] = daily p.o. dosing of IPDR for 6 or 14 days; nude mice; cited from earlier work
[9] = system: human colon and brain cancer xenograft models; conditions: daily p.o. dosing of IPDR for 6 or 14 days; human colon and brain cancer xenografts; cited from earlier work
[10] = system: AA8 cells; assay: FaraA cytotoxicity in wild type AA8 CHO cells; format: cell-based; conditions: 6 mM MX
Method: as §3, §4, §5

[11] = system: H9T3 cells; assay: FaraA cytotoxicity in XRCC1 reconstituted H9T3 CHO cells; format: cell-based; conditions: 6 mM MX
Method: as §3, §4, §5

[12] = system: Human MDA-MB-231 breast cancer cells; assay: MDA-MB-231 breast cancer xenografts in athymic mice, with Doxorubicin; format: in vivo; conditions: MDA-MB-231 xenograft; i.p. days 1-5, 3 cycles; all mice also Doxorubicin 1.5 mg/kg day 4; measured at day 49
Method: FIG. 6. Effect of Rad51 antisense on tumor growth delay induced by Doxorubicin on Human MDA-MB-231 Breast cancer cells grown as xenografts in Athymic Mice. The mice were treated i.p. with Rad51 antisense at 5 mg/kg on days 1 through 5, MX at 2 mg/kg on days 1 through 5, and with Doxorubicin at 1.5 mg/kg on day 4. The cycle was repeated three times with a two-day rest period between cycles.
(§6) Athymic mice are treated with Rad51 antisense alone, MX alone, and Rad51 antisense in combination with MX. All mice are also treated with Doxorubicin. Tumor fragment of about 2×2×2 mm derived from Human MDA-MB-231 breast cancer cells Athymic mice are implanted s.c. into the axilliary region of the mice. The mice are treated i.p. with Rad51 antisense at 5 mg/kg on days 1 through 5, MX at 2 mg/kg on days 1 through 5, and Doxorubicin at 1.5 mg/kg on day 4. The cycle is repeated three times with a two-day rest period between cycles. The animals are euthanatized 49 days after the beginning of the experiment, and the tumor size is measured by calipers.

[13] = system: Human U87 MG glioma cells; assay: U87 MG glioma xenografts in athymic mice, with IPDR; format: in vivo; conditions: U87 MG xenograft; i.p. days 1-5, 3 cycles; all mice also IPDR 250 mg/kg day 4; measured at day 49
Method: as §6, with “IPDR.” for “Doxorubicin.”, “U87 MG glioma” for “MDA-MB-231 breast cancer”, “cells” for “cells Athymic mice”, “IPDR” for “Doxorubicin”, “250” for “1.5”

[14] = system: wild type and Polβ-complemented mouse fibroblasts; conditions: cited from earlier work
[15] = IUDR 48 hours, colonies counted after 7-10 days, read-out: IC50 for IUDR alone

Question: With `Nc1nc(F)nc2c1ncn2[C@@H]1O[C@H](CO)[C@@H](O)[C@@H]1O` [FaraA, Fludarabine] as the molecule, how does the pIC50 ([1]; Homo sapiens, FaraA + 6 mM MX, 48 hours, read-out: IC50 for FaraA with 6 mM MX) read?
Answer: 5.40

Question: And the pIC50 ([1]; Homo sapiens, FaraA alone, 48 hours, read-out: IC50 for FaraA alone)?
Answer: 4.96

Question: What about the pIC50 ([2]; Homo sapiens, HCT-116, FaraA + 6 mM MX, 24 hours, read-out: IC50 for FaraA with 6 mM MX) of the same molecule?
Answer: 5.52

Question: What about the pIC50 ([2]; Homo sapiens, HCT-116, FaraA alone, 24 hours, read-out: IC50 for FaraA treatment) of the same molecule?
Answer: 5.05

Question: And the pIC50 ([3]; HCT116/3-6 cells, FaraA + 6 mM MX, read-out: IC50 for FaraA in the presence of 6 mM MX)?
Answer: 5.52

Question: And the pIC50 ([3]; HCT116/3-6 cells, FaraA alone, read-out: IC50 for FaraA)?
Answer: 5.30

Question: And the pIC50 ([4]; Cricetulus griseus, CHO, XRCC1 mutant EM9 cells, FaraA alone, 24 hours)?
Answer: 5.12

Question: With `O=c1[nH]c(=O)n([C@H]2C[C@H](O)[C@@H](CO)O2)cc1I` [IUDR, IodoUridineDeoxyRibose] as the molecule, how does the pIC50 [1, 15] read?
Answer: 5.10

Question: What about the pIC50 ([1]; IUDR + 6 mM MX for 48 hours, read-out: IC50 for IUDR with MX treatment) of the same molecule?
Answer: 6.00

Question: And the “Response to IUDR alone and to MX+IUDR compared with A2780/cp70” value ([5]; MMR positive subline A2780/cp70 chr3)?
Answer: qualitatively similar

Question: And the pIC50 [2, 15]?
Answer: 5.35

Question: And the pIC50 ([2]; IUDR + MX for 48 hours (method 6 mM MX, result sentence 12 mM MX), read-out: IC50 for IUDR with MX treatment)?
Answer: 6.30

Question: What about the “Response to IUDR alone and to MX+IUDR compared with HCT116” value ([3]; MMR positive subline HCT116/chr3-6) of the same molecule?
Answer: qualitatively similar

Question: And the “Cytotoxicity in clonogenic survival” value [6]?
Answer: greatly sensitized

Question: Which “Plasma IPDR levels required to act as a radiosensitizer” value [7] does the source give for `O=c1ncc(I)cn1[C@H]1C[C@H](O)[C@@H](CO)O1` [IPDR, 5-iodo-2-pyrimidinone-2′-deoxyribose] here?
Answer: acceptable level

Question: And the Systemic toxicity [8]?
Answer: no significant systemic toxicity

Question: What about the Tumor radiosensitization [9] of the same molecule?
Answer: significant radiosensitization

Question: With `CON` [MX, Methoxyamine] as the molecule, how does the “Sensitization to IUDR-induced cytotoxicity by MX” value ([1]; 6 mM MX, 48 hours) read?
Answer: greatly sensitized

Question: And the “Sensitization to IUDR-induced cytotoxicity by MX” value ([5]; cp70/ch3 cells, 6 mM MX, 48 hours)?
Answer: greatly sensitized

Question: What about the “Sensitization to IUDR-induced cytotoxicity by MX” value ([2]; 12 mM MX as printed) of the same molecule?
Answer: greatly sensitized

Question: What about the “Sensitization to IUDR-induced cytotoxicity by MX” value ([3]; HCT116/3-6 cells, 12 mM MX as printed) of the same molecule?
Answer: greatly sensitized

Question: And the “Sensitization to FaraA by MX” value ([4]; EM9 cells, 6 mM MX)?
Answer: further sensitized

Question: What about the “Sensitization to FaraA by MX” value [10] of the same molecule?
Answer: significantly sensitized

Question: What about the “Sensitization to FaraA by MX” value [11] of the same molecule?
Answer: significantly sensitized

Question: What about the “Tumor size and tumor cell killing” value [12] of the same molecule?
Answer: Reduction in tumor size and tumor cell killing

Question: What about the “Tumor size and tumor cell killing” value [13] of the same molecule?
Answer: Reduction in tumor size and tumor cell killing

Question: What about the “Sensitization to the cytotoxicity of Ganciclovir” value [14] of the same molecule?
Answer: sensitized
